Measured values reported in patent publication US8865731B2, “Inhibitor of analgesic tolerance” (Kyowa Hakko Kirin Co., Ltd., priority 2008, dated 2014).

Experiments:
[1] = tested on: Male ddY mice; experiment: Suppressing activity on morphine analgesic tolerance (hot plate method, response latency); format: in vivo; conditions: for ΔChange (Latency at each time point − Pre value) 0.5 h: day 7, 0.5 h; for ΔChange (Latency at each time point − Pre value) 1 h: day 7, 1 h; for ΔChange (Latency at each time point − Pre value) 2 h: day 7, 2 h
[2] = tested on: Male ddY mice; experiment: Suppressing activity on oxycodone analgesic tolerance (hot plate method, response latency); conditions: for Latency (sec) Pre value (before drug administration on last day) / ΔChange (Latency at each time point − Pre value) 0.5 h / ΔChange (Latency at each time point − Pre value) 1 h / ΔChange (Latency at each time point − Pre value) 2 h: Table 6
[3] = Table 4, Compound (IIA) 100 mg/kg p.o. repeatedly administered alone
[4] = Table 4, repeated combination group: Compound (IIA) 100 mg/kg p.o. 30 min before each morphine 6 mg/kg s.c., 7 days
[5] = Table 1, Compound (IIIB) 3 mg/kg p.o. repeatedly administered alone
[6] = Table 1, repeated combination group: Compound (IIIB) 3 mg/kg p.o. 30 min before each morphine 6 mg/kg s.c., 7 days
[7] = Table 2, Compound (IIIC) 1 mg/kg p.o. repeatedly administered alone
[8] = Table 2, repeated combination group: Compound (IIIC) 1 mg/kg p.o. 30 min before each morphine 6 mg/kg s.c., 7 days
[9] = Table 5, compound 30 mg/kg p.o. repeatedly administered alone
[10] = Table 5, repeated combination group: compound 30 mg/kg p.o. 30 min before each morphine 6 mg/kg s.c., 7 days
[11] = Test Example 6, compound 30 mg/kg p.o. 30 min before each morphine 6 mg/kg s.c., 7 days
[12] = Test Example 6, compound 30 mg/kg p.o. repeatedly administered alone
[13] = Table 4, Compound (VIA) 30 mg/kg p.o. repeatedly administered alone
[14] = Table 4, repeated combination group: Compound (VIA) 30 mg/kg p.o. 30 min before each morphine 6 mg/kg s.c., 7 days
[15] = Table 4, Compound (VII) 60 mg/kg p.o. repeatedly administered alone
[16] = Table 4, repeated combination group: Compound (VII) 60 mg/kg p.o. 30 min before each morphine 6 mg/kg s.c., 7 days

With `CC(C)(O)CCN1CCN(c2cc3nc(-c4ccco4)nn3c(N)n2)CC1` [Compound (IIA)] the “ΔChange (Latency at each time point − Pre value) 0.5 h” value [1, 3] was 1.2 ± 1.5 s, the “ΔChange (Latency at each time point − Pre value) 1 h” value [1, 3] was 1.7 ± 1.4 s and the “ΔChange (Latency at each time point − Pre value) 2 h” value [1, 3] was 0.9 ± 1.1 s. The “ΔChange (Latency at each time point − Pre value) 0.5 h” value [1, 4] was 12.8 ± 1.9 s, the “ΔChange (Latency at each time point − Pre value) 1 h” value [1, 4] was 6.4 ± 1.7 s and the “ΔChange (Latency at each time point − Pre value) 2 h” value [1, 4] was 2.4 ± 1.2 s. The “development of analgesic tolerance (response latency)” value (“development of analgesic tolerance” below) ([1]; Test Example 5, Compound (IIA) 100 mg/kg p.o. 30 min before each morphine 6 mg/kg s.c., 7 days) was “the development of analgesic tolerance was prevented” and the “effect on the response latency” value ([1]; Test Example 5, Compound (IIA) 100 mg/kg p.o. repeatedly administered alone) was “the effect on the response latency was not observed”.
With `Cc1ncc(C(=O)Nc2nc(-c3ccco3)c(C(=O)C3CCOCC3)s2)cn1` [Compound (IIIB)] the “ΔChange (Latency at each time point − Pre value) 0.5 h” value [1, 5] was 0.1 ± 0.5 s, the “ΔChange (Latency at each time point − Pre value) 1 h” value [1, 5] was −0.1 ± 0.4 ^ sec and the “ΔChange (Latency at each time point − Pre value) 2 h” value [1, 5] was 0.4 ± 1.2 s. For the same compound, the “ΔChange (Latency at each time point − Pre value) 0.5 h” value [1, 6] was 18.2 ± 1.2 s, the “ΔChange (Latency at each time point − Pre value) 1 h” value [1, 6] was 13.5 ± 0.8 s and the “ΔChange (Latency at each time point − Pre value) 2 h” value [1, 6] was 4.8 ± 0.7 s. For the same compound, the “development of analgesic tolerance” value ([1]; Test Example 3, Compound (IIIB) 3 mg/kg p.o. 30 min before each morphine 6 mg/kg s.c., 7 days) was “the development of analgesic tolerance was prevented” and the “effect on the response latency” value ([1]; Test Example 3, Compound (IIIB) 3 mg/kg p.o. repeatedly administered alone) was “the effect on the response latency was not observed”.
In the case of `Cc1ccc(C(=O)Nc2nc(-c3ccco3)c(C(=O)C3CCOCC3)s2)cn1` [Compound (IIIC)], the “ΔChange (Latency at each time point − Pre value) 0.5 h” value [1, 7] is reported as −2.2 ± 1.3^ sec, the “ΔChange (Latency at each time point − Pre value) 1 h” value [1, 7] is reported as -1.0 ± 0.7 s and the “ΔChange (Latency at each time point − Pre value) 2 h” value [1, 7] is reported as -1.0 ± 0.9 s. The “ΔChange (Latency at each time point − Pre value) 0.5 h” value [1, 8] was 16.1 ± 2.4 s, the “ΔChange (Latency at each time point − Pre value) 1 h” value [1, 8] was 9.3 ± 1.6 s and the “ΔChange (Latency at each time point − Pre value) 2 h” value [1, 8] was 1.9 ± 0.9 s. The “development of analgesic tolerance” value ([1]; Test Example 3, Compound (IIIC) 1 mg/kg p.o. 30 min before each morphine 6 mg/kg s.c., 7 days) was “the development of analgesic tolerance was prevented” and the “effect on the response latency” value ([1]; Test Example 3, Compound (IIIC) 1 mg/kg p.o. repeatedly administered alone) was “the effect on the response latency was not observed”.
In the case of `COCCOc1ccc(N2CCN(CCn3ncc4c3nc(N)n3nc(-c5ccco5)nc43)CC2)cc1` [Compound (IVA)], the “ΔChange (Latency at each time point − Pre value) 0.5 h” value [1, 9] is reported as 0.5 ± 0.6 s, the “ΔChange (Latency at each time point − Pre value) 1 h” value [1, 9] is reported as −0.4 ± 1.0 ^ sec and the “ΔChange (Latency at each time point − Pre value) 2 h” value [1, 9] is reported as -0.5 ± 1.4 s. The “ΔChange (Latency at each time point − Pre value) 0.5 h” value [1, 10] was 14.9 ± 1.6 s, the “ΔChange (Latency at each time point − Pre value) 1 h” value [1, 10] was 8.3 ± 0.4 s and the “ΔChange (Latency at each time point − Pre value) 2 h” value [1, 10] was 0.7 ± 1.1 s. The “development of analgesic tolerance” value [1, 11] was “the development of analgesic tolerance was prevented” and the “effect on the response latency” value [1, 12] was “the effect on the response latency was not observed”.
For `CCCCc1nc(N)c2nc(-n3nccn3)n(C)c2n1` [Compound (VIA)], the “ΔChange (Latency at each time point − Pre value) 0.5 h” value [1, 13] was -0.8 ± 1.3 s, the “ΔChange (Latency at each time point − Pre value) 1 h” value [1, 13] was 0.2 ± 2.1 s and the “ΔChange (Latency at each time point − Pre value) 2 h” value [1, 13] was -0.2 ± 1.1 s. The “ΔChange (Latency at each time point − Pre value) 0.5 h” value [1, 14] was 13.0 ± 2.4 s, the “ΔChange (Latency at each time point − Pre value) 1 h” value [1, 14] was 7.6 ± 1.7 s and the “ΔChange (Latency at each time point − Pre value) 2 h” value [1, 14] was 1.9 ± 1.3 s. The “development of analgesic tolerance” value ([1]; Test Example 5, Compound (VIA) 30 mg/kg p.o. 30 min before each morphine 6 mg/kg s.c., 7 days) was “the development of analgesic tolerance was prevented” and the “effect on the response latency” value ([1]; Test Example 5, Compound (VIA) 30 mg/kg p.o. repeatedly administered alone) was “the effect on the response latency was not observed”.
With `Cc1nc(-c2sc(NC(=O)C3CC3)nc2-c2ccccc2)no1` [Compound (VII)] the “ΔChange (Latency at each time point − Pre value) 0.5 h” value [1, 15] was -0.8 ± 1.0 s, the “ΔChange (Latency at each time point − Pre value) 1 h” value [1, 15] was -0.7 ± 1.0 s and the “ΔChange (Latency at each time point − Pre value) 2 h” value [1, 15] was 0.0 ± 0.6 s. The “ΔChange (Latency at each time point − Pre value) 0.5 h” value [1, 16] was 12.8 ± 2.1 s, the “ΔChange (Latency at each time point − Pre value) 1 h” value [1, 16] was 7.8 ± 1.3 s and the “ΔChange (Latency at each time point − Pre value) 2 h” value [1, 16] was 1.8 ± 0.8 s. For the same compound, the “development of analgesic tolerance” value ([1]; Test Example 5, Compound (VII) 60 mg/kg p.o. 30 min before each morphine 6 mg/kg s.c., 7 days) was “the development of analgesic tolerance was prevented” and the “effect on the response latency” value ([1]; Test Example 5, Compound (VII) 60 mg/kg p.o. repeatedly administered alone) was “the effect on the response latency was not observed”.
For `Cc1cc(Cn2nnc3c(-c4ccco4)nc(N)nc32)ccc1N` [Compound (VIII)], the “ΔChange (Latency at each time point − Pre value) 0.5 h” value [1, 9] was −0.5 ± 0.9 ^ sec, the “ΔChange (Latency at each time point − Pre value) 1 h” value [1, 9] was 0.1 ± 0.9 s and the “ΔChange (Latency at each time point − Pre value) 2 h” value [1, 9] was -1.1 ± 1.1 s. For the same compound, the “ΔChange (Latency at each time point − Pre value) 0.5 h” value [1, 10] was 13.6 ± 1.6 s, the “ΔChange (Latency at each time point − Pre value) 1 h” value [1, 10] was 7.8 ± 0.8 s and the “ΔChange (Latency at each time point − Pre value) 2 h” value [1, 10] was 1.1 ± 0.8 s. The “development of analgesic tolerance” value [1, 11] was “the development of analgesic tolerance was prevented” and the “effect on the response latency” value [1, 12] was “the effect on the response latency was not observed”.
For `COc1ccc2c3c1O[C@H]1C(=O)CC[C@@]4(O)[C@@H](C2)N(C)CC[C@]314` [oxycodone, reference compound], the “Latency (sec) Pre value (before drug administration on last day)” value ([2]; repeated oxycodone administration group: oxycodone 20 mg/kg p.o. twice a day, 4 days, day 4) was 12.4 ± 1.1 s, the “ΔChange (Latency at each time point − Pre value) 0.5 h” value ([2]; repeated oxycodone administration group: oxycodone 20 mg/kg p.o. twice a day, 4 days, day 4, 0.5 h) was 5.9 ± 3.4 s and the “ΔChange (Latency at each time point − Pre value) 1 h” value ([2]; repeated oxycodone administration group: oxycodone 20 mg/kg p.o. twice a day, 4 days, day 4, 1 h) was 2.7 ± 2.3 s. The “ΔChange (Latency at each time point − Pre value) 2 h” value ([2]; repeated oxycodone administration group: oxycodone 20 mg/kg p.o. twice a day, 4 days, day 4, 2 h) was 0.1 ± 1.3 s, the “Latency (sec) Pre value (before drug administration on last day)” value ([2]; single oxycodone administration group: distilled water twice a day 3 days, oxycodone 20 mg/kg p.o. only on day 4) was 11.7 ± 1.0 s and the “ΔChange (Latency at each time point − Pre value) 0.5 h” value ([2]; single oxycodone administration group: oxycodone 20 mg/kg p.o. only on day 4, 0.5 h) was 17.5 ± 4.2 s. For the same compound, the “ΔChange (Latency at each time point − Pre value) 1 h” value ([2]; single oxycodone administration group: oxycodone 20 mg/kg p.o. only on day 4, 1 h) was 11.8 ± 2.0 s, the “ΔChange (Latency at each time point − Pre value) 2 h” value ([2]; single oxycodone administration group: oxycodone 20 mg/kg p.o. only on day 4, 2 h) was 6.9 ± 2.4 s and the “development of analgesic tolerance” value ([2]; Test Example 7, oxycodone 20 mg/kg p.o. repeatedly for 4 days vs single oxycodone administration group) was “the development of analgesic tolerance was observed”.
